Among the test systems are LXFL 529 NSCLC; SF-295 CNS; SNB-75 CNS; KM20L2 colon; OVCAR-3 ovarian; U251 CNS; SK-MEL-2 melanoma; UO-31 renal; SR leukemia; MCF7 breast.
Test in all cases: DTP human tumour cell line panel, 48 h

Where “and” joins values, the source holds several entries; their conditions need not be identical. Equal values may be shown once.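 Exposure lasted 48 hours, with cells grown in 96-well plates and compounds tested at five concentrations. At the GI50, growth is halved. At the TGI there is no net growth.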

`COc1ccc2oc(C(=O)O)c3c2c1CCC3`: the total growth inhibition concentration (TGI) with LXFL 529 NSCLC, with SF-295 CNS, in the test with SNB-75 CNS, in the test on KM20L2 colon, with OVCAR-3 ovarian and in the test on U251 CNS was more than 100 µM each time.

Consider `O=S(O)CCCSSc1ccccc1`, for which the total growth inhibition concentration (TGI) was more than 100 µM in the test with LXFL 529 NSCLC; more than 100 µM in the test on SF-295 CNS; 88.2 µM in the test with SNB-75 CNS; more than 100 µM in the test on KM20L2 colon; more than 100 µM in the test with OVCAR-3 ovarian; more than 100 µM with U251 CNS. Besides, the concentration for total growth inhibition (TGI) in the test with SK-MEL-2 melanoma and in the test on UO-31 renal was more than 100 µM in each case.

On to `O=C1CC(O)(c2ccccc2)C(c2ccccc2)=C1c1ccccc1` (centres undefined), for which the TGI in the test with LXFL 529 NSCLC was more than 100 µM; in the test on SF-295 CNS it was more than 100 µM; with SNB-75 CNS, 96.7 µM; in the test on KM20L2 colon, more than 100 µM; in the test on OVCAR-3 ovarian it was 88.2 µM; in the test with SK-MEL-2 melanoma, more than 100 µM.

As to `CCC[CH2][Sn]1([CH2]CCC)[O]C(=O)c2ccc(C)cc2[O]1`, the concentration for 50% growth inhibition (GI50) in the test with SR leukemia was 0.255 µM; with LXFL 529 NSCLC, 0.158 µM; in the test with SF-295 CNS it was 1.21 µM; with SNB-75 CNS it was 0.226 µM; with KM20L2 colon, 1.21 µM; in the test on OVCAR-3 ovarian, 1.18 µM. Also, the GI50 in the test with U251 CNS is 0.316 µM; in the test on UO-31 renal, 0.845 µM. For the same molecule, the concentration for total growth inhibition (TGI) with SR leukemia came out at 1.25 µM; with LXFL 529 NSCLC, 0.372 µM; with SF-295 CNS, 2.52 µM; in the test with SNB-75 CNS, 0.659 µM; in the test with KM20L2 colon, 2.46 µM; in the test with OVCAR-3 ovarian it was 2.43 µM. In addition, the figures for the TGI in the test with U251 CNS and in the test on UO-31 renal were 1.16 µM and 2.08 µM, respectively.

`COc1cc2c(cc1OC)C(=O)Cc1ccc(OC)c(OC)c1CN(C)CC2`: the TGI in the test with LXFL 529 NSCLC, in the test on SNB-75 CNS, with KM20L2 colon, in the test with OVCAR-3 ovarian, in the test with U251 CNS and in the test on SK-MEL-2 melanoma was more than 100 µM in each case. The molecule further gave a concentration for total growth inhibition (TGI) in the test with UO-31 renal of more than 100 µM.

Regarding `COc1cc(O)c2c(c1)C(=O)c1cc3c(c(O)c1C2=O)C(OC1OC(C)C(O)C(O)C1OC)C(OC)C(C)(O)C3=O` (centres undefined), the GI50 in the test with SR leukemia was 2.16 µM; in the test with SF-295 CNS, 1.53 µM; with SNB-75 CNS, 2.84 µM; in the test with OVCAR-3 ovarian, 1.38 µM; with U251 CNS it was 2.56 µM; with SK-MEL-2 melanoma, 2.49 µM. In addition, in the test on UO-31 renal, the GI50 is 1.87 µM. In addition, the TGI was more than 100 µM in the test on SR leukemia; 6.76 µM and 6.4 µM in the test on MCF7 breast; 4.7 µM and 5.97 µM in the test on SF-295 CNS; 15.7 µM and 10.1 µM with SNB-75 CNS; 6 µM in the test on KM20L2 colon; 5.83 µM and 2.04 µM with OVCAR-3 ovarian. Besides, the concentration for total growth inhibition (TGI) in the test with U251 CNS is 13.2 µM and 11.8 µM; in the test on SK-MEL-2 melanoma, 6.52 µM and 9.1 µM; in the test on UO-31 renal, 12.2 µM and 7.13 µM.

As for `Cc1cc2c(c3oc(C4(C)OC4C4OC4C)cc(=O)c13)C(=O)c1c(O)c(C3CC(C)(N(C)C)C(O)C(C)O3)cc(C3CC(N(C)C)C(O)C(C)O3)c1C2=O` (centres undefined), the TGI was 0.00495 µM and 0.0102 µM with SR leukemia; 0.0117 µM with LXFL 529 NSCLC; 0.000154 µM and 0.0012 µM in the test with SF-295 CNS; 0.0143 µM and 0.00225 µM in the test on UO-31 renal. Also, in the test on UO-31 renal, the 50% growth inhibitory concentration (GI50) was 0.00638 µM.

For `CC1OC(OC2C(CO)OC(O[C@H]3CC[C@@]4(C)C(=CC[C@H]5[C@@H]6C[C@@H]7O[C@]8(CC[C@@H](C)CN8)[C@@H](C)[C@@H]7[C@@]6(C)CC[C@@H]54)C3)C(O)C2O)C(O)C(O)C1O` (some centres undefined), the total growth inhibition concentration (TGI) with LXFL 529 NSCLC, in the test with SF-295 CNS, in the test on SNB-75 CNS, in the test with KM20L2 colon, in the test with OVCAR-3 ovarian and with U251 CNS was more than 100 µM in each case. The concentration for total growth inhibition (TGI) in the test on SK-MEL-2 melanoma and in the test on UO-31 renal was more than 100 µM each time.

For the molecule `O=C(NCC(O)CNC(=O)C(F)(F)F)C(F)(F)F`, the TGI in the test on SR leukemia, with LXFL 529 NSCLC, in the test with SF-295 CNS, with SNB-75 CNS, with KM20L2 colon and with OVCAR-3 ovarian was more than 100 µM in each case. For the same molecule, the TGI with U251 CNS and with UO-31 renal was more than 100 µM in each case.

Consider `NCCN1C(=O)C2C3c4ccccc4C(c4ccccc43)C2C1=O` (centres undefined), for which the TGI in the test with LXFL 529 NSCLC, with SF-295 CNS, in the test with SNB-75 CNS, in the test with KM20L2 colon, with OVCAR-3 ovarian and in the test on U251 CNS was more than 100 µM in each case. Moreover, the total growth inhibition concentration (TGI) in the test on SK-MEL-2 melanoma and in the test with UO-31 renal was more than 100 µM each time.

As for `Cc1ccc(-c2nc(N3CCCNCC3)c3oc(-c4ccccc4)nc3n2)cc1`, the GI50 was 0.239 µM in the test on SR leukemia; 1.59 µM with MCF7 breast; 1.93 µM in the test with SF-295 CNS; 1.41 µM in the test with SNB-75 CNS; 1.83 µM in the test with OVCAR-3 ovarian; 1.78 µM in the test with U251 CNS. Besides, the GI50 was 2.03 µM in the test on SK-MEL-2 melanoma and 1.49 µM in the test on UO-31 renal. Further, the TGI is 0.624 µM in the test on SR leukemia; 3.44 µM in the test on MCF7 breast; 3.43 µM with SF-295 CNS; 2.73 µM with SNB-75 CNS; 3.38 µM in the test on OVCAR-3 ovarian; 3.17 µM in the test with U251 CNS. For the same molecule, the TGI in the test with SK-MEL-2 melanoma was 3.77 µM; with UO-31 renal it was 2.85 µM.

These data come from PubChem BioAssay (NCI).
